Data reported in patent US20130158098A1, “Alkenyl Substituted Cycloaliphatic Compounds as Chemical Inducers of Proximity” (priority 2010, published 2013).
“Also recorded” adds a separate entry of the source.

Experiments:
[1] = Bioavailability of ABA in mice (serum tested by luciferase activation); type: in vivo, mouse
Experimental: Mice were housed in the Stanford University Research Animal Facility in accordance with federal and institutional guidelines. Mice aged 6 to 8 weeks and weighing about 30 g were orally gavaged with 10 mg of ABA in EtOH/Tween 20/Cremophor (4:3:1; […] or just vehicle with syringes. Blood was collected from the tails of mice at the indicated time after gavage and left on ice for 20 min. After blood was coagulated, the samples were spun down at 1500 g for 20 min and serum was collected for immediate use or snap-frozen and stored at −80° C.
FIG. 5A illustrates the bio-availability of ABA in mice by intraperitoneal injection. With 100 mg ABA/kg mouse body weight, ABA is rapidly available in 30 minutes and still remains in the system after 4 hours. ABA was intraperitoneally injected to mice and serum was collected at indicated time. ABA containing serum was then added as 10% (v/v) of culture media to the CHO cell culture for 24 hours and cells were assayed for luciferase activity. The CHO cells were pre-transfected with the activation and reporter DNA constructs for 24 hours before adding serum. […] With 340 mg ABA/kg mouse body weight, ABA is rapidly available in 1 hour, remains in the system after 8 hours and returns to background level after 24 hours. ABA was orally administrated by gavage to mice and serum was collected at indicated time. ABA containing serum was then added as 10% (v/v) of culture media to the CHO cell culture for 24 hours and cells were assayed for luciferase activity. The CHO cells were pre-transfected with the activation and reporter DNA constructs for 24 hours before adding serum.
In plants, ABA had been reported to be unstable due to active enzymatic degradation (Cutler, A. J. and Krochko, J. E. (1999) Formation and breakdown of ABA. Trends Plant Sci. 4, 472-478). To examine its stability in mammalian cells, ABA was incubated with CHO cells for up to 48 hours, after which the functional ABA concentration was assayed by the ability of the ABA-incubated cell culture medium to induce luciferase production in cells expressing VP16-PYLcs and wild-type Gal4 DBD-ABIcs. […] For potential therapeutic application in humans, the stability of ABA in the serum and its bioavailability in mice was examined (FIG. 16B). The activity of residual ABA in the serum was measured by its ability to induce the transcriptional activation of the luciferase reporter in cells expressing the ABA-activator cassette. The stability of ABA in isolated serum was tested by incubating ABA with fresh human serum or heat-inactivated fetal bovine serum (FBS) for up to 48 hours and then applying the serum as the ABA source to activate luciferase. […] Using this assay, the bioavailability in mice was evaluated. When ABA was injected intraperitoneally, it entered circulation rapidly, and activity was detectable within 30 min (FIG. 33).

[2] = subchronic toxicity studies; cited from earlier work
[3] = intraperitoneal injection, 100 mg ABA/kg

## CC1=CC(=O)CC(C)(C)C1(O)/C=C/C(C)=C/C(=O)O (stereo not drawn) [ABA, abscisic acid]
[1]
  oral availability: orally bioavailable; also recorded: orally available
[1]; injected intraperitoneally
  time to detectable activity in circulation: ≤ 30 min
[1]; [3]
  time ABA still remains in the system: ≥ 4 h
  time at which ABA is available in serum: 30 min
[1]; mouse, serum, po, 340 mg/kg, administered orally
  half-life: ~4 h
[1]; oral gavage, 340 mg ABA/kg
  time ABA remains in the system: ≥ 8 h
  time at which ABA is available in serum: 60 min
  time of return to background level: 24 h
[2]
  no observable adverse effect level (NOAEL): 20,000 mg/kg per day
